Test results published in PubChem BioAssay (NCI).
“And” between values parts separate entries of the source, which are not always exact repeats. Equal values may be shown once.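 Compound exposure: 48 hours, 5 concentrations, 96-well plates. GI50 is the concentration that inhibits growth by half. At the TGI there is no net growth.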

What was measured:
Assay in all cases: NCI anticancer screen, dose series, 48 h
786-0 renal = tested on: 786-0 renal
A498 renal = tested on: A498 renal
A549 NSCLC = tested on: A549 NSCLC
CAKI-1 renal = tested on: CAKI-1 renal
HT29 colon = tested on: HT29 colon
MOLT-4 leukemia = tested on: MOLT-4 leukemia
NCI-H23 lung = tested on: NCI-H23 lung
NCI-H522 lung = tested on: NCI-H522 lung
OVCAR-3 ovarian = tested on: OVCAR-3 ovarian
OVCAR-4 ovarian = tested on: OVCAR-4 ovarian

Structure (SMILES)	GI50 (786-0 renal) [µM]	TGI (786-0 renal)	GI50 (A498 renal) [µM]	TGI (A498 renal)	GI50 (A549 NSCLC) [µM]	TGI (A549 NSCLC)	GI50 (CAKI-1 renal)	TGI (CAKI-1 renal)	GI50 (HT29 colon)	TGI (HT29 colon)	GI50 (MOLT-4 leukemia) [µM]	TGI (MOLT-4 leukemia)	GI50 (NCI-H23 lung) [µM]	TGI (NCI-H23 lung)	GI50 (NCI-H522 lung) [µM]	TGI (NCI-H522 lung)	GI50 (OVCAR-3 ovarian) [µM]	TGI (OVCAR-3 ovarian)	GI50 (OVCAR-4 ovarian) [µM]	TGI (OVCAR-4 ovarian)
CCOC(=O)Cc1c[nH]c(=S)[nH]c1=O	> 100	> 100 µM	> 100	> 100 µM	> 100	> 100 µM	> 100 µM	> 100 µM	> 100 µM	> 100 µM	> 100	> 100 µM	> 100	> 100 µM	> 100	> 100 µM	> 100	> 100 µM	> 100	> 100 µM
C=C(C)[C@@H]1CC=C(CO)CC1	> 10	> 10 µM and 943 µM	> 10	> 10 µM and 1170 µM	> 10	> 10 µM and 755 µM	–	> 10 µM	> 10 µM	> 10 µM and 702 µM	> 10	> 10 µM and 1050 µM	> 10	> 10 µM and 1120 µM	> 10	> 10 µM and 1150 µM	> 10	> 10 µM and 736 µM	> 10	> 10 µM and 1130 µM
CCN(CC)c1ccc(/C=C/c2cc(C)c3ccccc3n2)cc1	4.51	16.2 µM	2.32	15.4 µM	3.99	> 100 µM	1.93 µM	13.4 µM	2.41 µM	7.39 µM	4.07	43.1 µM	3.43	39.3 µM	1.31	3.91 µM	1.82	4.78 µM	8.37	> 100 µM
C=C1C(=O)O[C@@H]2C1CC(=O)C(C)CC/C=C(\C)CCC[C@H](C)[C@H]2OC(C)=O (some centres not stated)	17	32.2 µM	20.7	35.4 µM	19.6	38.7 µM	11.9 µM	24.4 µM	5.28 µM	> 100 µM	10.9	35 µM	13.9	29.5 µM	15.9	41.6 µM	10.2	21.8 µM	15.2	32 µM
C=C1C(=O)OC2CC3(C)C=CC(=O)C(=C)C3CC12 (configuration not stated)	–	3.36 µM	–	19.5 µM	–	20.4 µM	–	2.77 µM	–	3.45 µM	–	3.52 µM	–	3.48 µM	–	1.69 µM	–	7.19 µM	–	6.55 µM
CC1=CC(=O)c2c(O)cccc2C1=O	–	3.01 µM	–	13.2 µM	–	34.6 µM	–	3.24 µM	–	3.46 µM	–	0.762 µM	–	3.47 µM	–	3.01 µM	–	2.29 µM	–	3.26 µM
COC12C=CC(CC1)c1c(O)ccc(O)c12 (configuration not stated)	–	> 100 µM	–	> 100 µM	–	> 100 µM	–	> 100 µM	–	> 100 µM	–	> 79 µM	–	> 100 µM	–	35.1 µM	–	44.2 µM	–	46.6 µM
CN(C)c1ccc2c(NCCCCCCNc3ccnc4cc(N(C)C)ccc34)ccnc2c1	–	45.3 µM	–	95.8 µM	–	> 100 µM	–	> 100 µM	–	> 100 µM	–	> 100 µM	–	27.2 µM	–	25.2 µM	–	27.7 µM	–	28.2 µM
CC[C@](C)(O)C(=O)O[C@H]1C(=O)O[C@@H]2C[C@H]3C(C)=CC(=O)[C@@H](O)[C@]3(C)[C@H]3[C@@]4(O)OC[C@]32[C@@H]1[C@@H](C)[C@H]4O	–	0.832 µM	0.95	3.36 µM and 1.15 µM	2.75	14.9 µM and 9.66 µM	0.577 µM and 0.158 µM	8.8 µM and 1.35 µM	0.321 µM and 0.122 µM	10.3 µM and 2.27 µM	0.0366	–	0.05	0.532 µM and 0.136 µM	0.0296	0.148 µM	0.387	0.502 µM and 1.62 µM	0.112	1.26 µM and 0.923 µM
